In PubChem BioAssay AID2060502 (Molecular Pharmacology Branch, DTP, NCI, 2025) one finds viability, T/C and IC50 data, which are given here for 9 compounds.

The experiment deals with 885724-159-R-J1-PDC complex spheroid viability. The experiment in a line: Anticancer human tumor 885724-159-R-J1-PDC patient-derived pancreatic adenocarcinoma cell line growth inhibition [GQUAD]. The note with it: for viability, T/C: stronger effect = lower value. An excerpt: DNA G-quadruplex Stabilizer Agents in Combinations in Complex Spheroids
A high-throughput screen of multi-cell type tumor spheroids was designed to identify active combinations of DNA G-quadruplex stabilizer agents and targeted small molecules. Complex spheroids include a stromal component modeled by human endothelial cells (HUVEC) and fibroblasts modeled by human mesenchymal stem cells (MSCs). The concentration ranges selected for each drug and investigational agent were based upon clinically achievable concentrations if the clinical Cmax of the agent was known.
Compounds. The drugs and investigational agents: pidnarulex (CX-5461; NSC782164), APTO-253 (NSC789042), BRACO-19 (NSC847499), peposertib (NSC802822), ceralasertib (NSC780249), elimusertib (NSC800525), camonsertib (NSC841442), AZD-1390 (NSC803789), olaparib (NSC753686), talazoparib (NSC767125), ART-558 (NSC835418), sotorasib (NSC818433), MRTX-1133 (NSC836407), SN-38 (NSC673596), topotecan (NSC609699), etoposide (NSC141540), doxorubicin (NSC123127), gemcitabine (NSC613327), 5-fluorouracil (NSC19893), paclitaxel (NSC125973), vemurafenib (NSC761431), panobinostat (NSC761190), R-306465 (JNJ-16241199; NSC773264), adavosertib (NSC754352), TP-3654 (NSC805149), carboplatin (NSC241240), KSQ-4279 (NSC840948), and staurosporine (NSC755774) were obtained from the National Cancer Institute (NCI) Developmental Therapeutics Program Chemical Repository (34). The FDA-approved anticancer drug set is available from the NCI Developmental Therapeutics Program. […] The stock solutions were prepared in dimethyl sulfoxide (DMSO, Sigma-Aldrich, St. Louis, MO, cat. D2650) at 800-fold the tested concentration and stored at -70 degrees C prior to their use. All drugs and investigational agents were tested over a range starting from a high concentration at or near the clinical Cmax and decreasing in half-log increments. If the clinical Cmax for an agent had not been determined, the highest concentration tested was 10 microM.
2.3 Cell Culture. All cells were maintained in an incubator at 37 degrees C and 5% CO2 with 95% humidity. The PDC lines were cultured according to standard operating procedures established by the NCI PDMR. All PDCs were thawed and cultured in Matrigel-coated flasks prepared with a working solution of 1X Ham's F-12 nutrient mix, without supplementation (Invitrogen, cat. 11765054), 100 U/mL penicillin-streptomycin (Invitrogen, cat. 15140122), and 2.5% Matrigel (Corning Inc., cat. 354248) for the first three passages. The 857933-349-R-J2-PDC line was cultured in 6C/Colon 1B media, which includes advanced DMEM/F-12 (Thermo Fisher Scientific, cat. 12634028), 10 mM HEPES (Thermo Fisher Scientific, cat. 15630080), 1X GlutaMAX supplement (Thermo Fisher Scientific, cat. 35050061), 0.1 mg/mL primocin (InvivoGen, cat. ant-pm-2), 10% defined fetal bovine serum, heat inactivated (HyClone Laboratories Inc., cat. SH30070.03HI), 50% L-WRN conditioned media (ATCC, cat. CRL-3276), 1.25 mM N-Acetyl-L-cysteine (Sigma-Aldrich, cat. A9165), 10 mM nicotinamide (Sigma-Aldrich, cat. N0636), 1X B-27 supplement (Thermo Fisher Scientific, cat. 17504044), 1X N-2 supplement (Thermo Fisher Scientific, cat. 17502048), 10 microM Y-27632 dihydrochloride (Tocris Bioscience, cat. 1254), and 50 ng/mL human EGF recombinant protein (Thermo Fisher Scientific, cat. PHG0311). The 485176-168-R4-J1-PDC line was cultured in Panc media, which includes all 6C/Colon 1B media components plus 100 ng/mL human FGF-10 (Thermo Fisher Scientific, cat. 100-26), 500 nM SB-431542 (Selleckchem, cat. S1067), and gastrin (Tocris, cat. 3006).
[…]

Where [1] appears, read: compound alone, run of 02/26/2024.

“And” between values parts separate entries of the source, which are not always exact repeats. Identical values can stand only once. A value given as a limit tells only on which side of the number the result lay.
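Note: spheroids exposed to agents for seven days before readout.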
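Throughout, for viability, T/C: percent of vehicle control viability where 100% = DMSO wells.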

For `COc1cc(C2c3cc4c(cc3C(OC3OC5COC(C)OC5C(O)C3O)C3COC(=O)C23)OCO4)cc(OC)c1O` (configuration not stated), the viability, T/C by setting is: (compound 0.0316 µM) 91.7% and 104% and 96.9%; (compound 0.1 µM) 109% and 103% and 96.3%; (compound 0.316 µM) 97.6% and 98.6% and 86.9%; (compound 1 µM) 88.8% and 96.8% and 89%; (compound 3.16 µM) 88.5% and 77.7% and 77.3%; (compound 10 µM) 85.7% and 76.8% and 76.7%. Further, the IC50 (curve of compound) is over 10 µM.
Take `CN(C)c1ccc(Nc2c3ccc(NC(=O)CCN4CCCC4)cc3nc3cc(NC(=O)CCN4CCCC4)ccc23)cc1`: the viability, T/C by setting is: (compound 0.0316 µM) 96.8% [middle of 12 runs]; (compound 0.1 µM) 97.9% [middle of 12 runs]; (compound 0.316 µM) 92.3% [middle of 12 runs]; (compound 1 µM) 79.7% [middle of 12 runs]; (compound 3.16 µM) 78.5% [middle of 12 runs]; (compound 10 µM) 84.1% [middle of 12 runs]. The IC50 under setting [1] was over 10 µM.
Regarding `O=C(c1cc(Cc2n[nH]c(=O)c3ccccc23)ccc1F)N1CCN(C(=O)C2CC2)CC1`, the viability, T/C was 99.2% and 89.1% and 108% (compound 0.0316 µM); 101% and 98.7% and 92.9% (compound 0.1 µM); 95.6% and 92.5% and 106% (compound 0.316 µM); 87% and 108% and 83.3% (compound 1 µM); 90.5% and 89.9% and 99.1% (compound 3.16 µM); 97.6% and 90.9% and 82.7% (compound 10 µM). Also, the half-inhibitory concentration (IC50) (curve of compound) is over 10 µM.
With `C=CCn1c(=O)c2cnc(Nc3ccc(N4CCN(C)CC4)cc3)nc2n1-c1cccc(C(C)(C)O)n1`, the viability, T/C by setting is: (compound 0.0316 µM) 90.4% and 95.2% and 93.1%; (compound 0.1 µM) 81.6% and 90.3% and 88.1%; (compound 0.316 µM) 68.6% and 78.2% and 86%; (compound 1 µM) 75.6% and 70.3% and 89.2%; (compound 3.16 µM) 65.7% and 58% and 84%; (compound 10 µM) 74.5% and 66.7% and 91.9%. For the setting “curve of compound”, the 50% inhibitory concentration (IC50) is over 10 µM.
On to `Cc1[nH]c2ccc(F)cc2c1-c1nc2c3cccnc3c3ncccc3c2[nH]1`, for which the viability, T/C by setting is: (compound 0.0316 µM) 100% [middle of 12 runs]; (compound 0.316 µM) 92.7% [middle of 12 runs]; (compound 1 µM) 76.8% [middle of 12 runs]; (compound 10 µM) 77.7% [middle of 12 runs]. The IC50 is over 10 µM (compound alone, run of 02/20/2024) and over 10 µM under setting [1].
`O=C(NO)c1cnc(N2CCN(S(=O)(=O)c3ccc4ccccc4c3)CC2)nc1`: the viability, T/C is 90.6% and 97.6% and 84% (compound 0.0316 µM); 98.7% and 96.6% and 80% (compound 0.1 µM); 94.2% and 85.3% and 72% (compound 0.316 µM); 43.3% and 36.8% and 41.2% (compound 1 µM); 1.62% and 0.69% and 11.8% (compound 3.16 µM); 0.25% and 0.51% and 0.27% (compound 10 µM). Where the note is “curve of compound”, the IC50 is 0.859 µM and 0.726 µM and 0.723 µM.
Take `CC(=O)O[C@H]1C(=O)[C@@]2(C)[C@H]([C@H](OC(=O)c3ccccc3)[C@]3(O)C[C@H](OC(=O)[C@H](O)[C@@H](NC(=O)c4ccccc4)c4ccccc4)C(C)=C1C3(C)C)[C@]1(OC(C)=O)CO[C@@H]1C[C@@H]2O` + Cc1cnc(CNC(=O)c2c(=O)c3ccc(N4CCCN(C)CC4)nc3n3c2sc2ccccc23)cn1: the IC50 is, setting by setting: (curve of first compound, second compound 0.0316 µM) over 10 µM; (curve of first compound, second compound 0.1 µM) over 10 µM; (curve of first compound, second compound 0.316 µM) over 10 µM; (curve of first compound, second compound 1 µM) over 10 µM; (curve of first compound, second compound 3.16 µM) over 10 µM; (curve of first compound, second compound 10 µM) over 10 µM. Further, the viability, T/C (second compound 0.0316 µM, first compound 0.0316 µM) was 103%; the viability, T/C (second compound 0.0316 µM, first compound 0.1 µM) is 97.3%; the viability, T/C (second compound 0.0316 µM, first compound 0.316 µM) was 96.9%; the viability, T/C (second compound 0.0316 µM, first compound 1 µM) was 108%; the viability, T/C (second compound 0.0316 µM, first compound 3.16 µM) is 104%; the viability, T/C (second compound 0.0316 µM, first compound 10 µM) was 107%. In addition, the viability, T/C is 111% (second compound 0.1 µM, first compound 0.0316 µM); 105% (second compound 0.1 µM, first compound 0.1 µM); 99.3% (second compound 0.1 µM, first compound 0.316 µM); 119% (second compound 0.1 µM, first compound 1 µM); 113% (second compound 0.1 µM, first compound 3.16 µM); 108% (second compound 0.1 µM, first compound 10 µM). The viability, T/C (second compound 0.316 µM, first compound 0.0316 µM) is 110%; the viability, T/C (second compound 0.316 µM, first compound 0.1 µM) is 114%; the viability, T/C (second compound 0.316 µM, first compound 0.316 µM) was 107%; the viability, T/C (second compound 0.316 µM, first compound 1 µM) is 88.7%; the viability, T/C (second compound 0.316 µM, first compound 3.16 µM) is 118%; the viability, T/C (second compound 0.316 µM, first compound 10 µM) was 105%. The viability, T/C runs as follows: (second compound 1 µM, first compound 0.0316 µM) 95.9%; (second compound 1 µM, first compound 0.1 µM) 93.3%; (second compound 1 µM, first compound 0.316 µM) 98.9%; (second compound 1 µM, first compound 1 µM) 93.6%; (second compound 1 µM, first compound 3.16 µM) 106%; (second compound 1 µM, first compound 10 µM) 86%. Also, the viability, T/C by setting is: (second compound 3.16 µM, first compound 0.0316 µM) 77%; (second compound 3.16 µM, first compound 0.1 µM) 78.6%; (second compound 3.16 µM, first compound 0.316 µM) 84.9%; (second compound 3.16 µM, first compound 1 µM) 79.5%; (second compound 3.16 µM, first compound 3.16 µM) 88.8%; (second compound 3.16 µM, first compound 10 µM) 99.6%. In addition, the viability, T/C (second compound 10 µM, first compound 0.0316 µM) was 66%; the viability, T/C (second compound 10 µM, first compound 0.1 µM) was 68.7%; the viability, T/C (second compound 10 µM, first compound 0.316 µM) was 78.4%; the viability, T/C (second compound 10 µM, first compound 1 µM) was 78.8%; the viability, T/C (second compound 10 µM, first compound 3.16 µM) is 74.1%; the viability, T/C (second compound 10 µM, first compound 10 µM) is 70.1%.
Turning to `CC(C)n1c(=O)n(C)c2cnc3cc(F)c(-c4ccc(OCCCN5CCCCC5)nc4)cc3c21`, the viability, T/C is 102% (2×) and 106% (compound 0.0316 µM); 100% and 103% and 96.6% (compound 0.1 µM); 83.3% and 94.1% and 102% (compound 0.316 µM); 107% and 108% and 86.7% (compound 1 µM); 95.5% and 86.1% and 102% (compound 3.16 µM); 87.7% and 68.2% and 77.4% (compound 10 µM). Further, under “curve of compound”, the 50% inhibitory concentration (IC50) is over 10 µM.
With `CC1COCCN1c1cc(C2(S(C)(=N)=O)CC2)nc(-c2ccnc3[nH]ccc23)n1` (configuration not stated), the viability, T/C was 105% (2×) and 97.6% (compound 0.0316 µM); 105% and 96.7% and 98.2% (compound 0.1 µM); 105% and 94.7% and 99.6% (compound 0.316 µM); 97.2% and 88.8% and 98.5% (compound 1 µM); 84.7% and 82.4% and 109% (compound 3.16 µM); 65.2% and 74.3% and 86.2% (compound 10 µM). For the same compound, the IC50 (curve of compound) is over 10 µM.
